# Assay results taken from US20240116985A1, “STAPLED PEPTIDES AND METHODS THEREOF” (priority 2020, published 2024).
# Target: T1, full-length beta-Catenin (Uniprot ID P35222) (Homo sapiens, UniProt P35222)
# T1 construct: 10 nM full-length beta-Catenin (Uniprot ID P35222)
# T1 sequence (P35222 1-781): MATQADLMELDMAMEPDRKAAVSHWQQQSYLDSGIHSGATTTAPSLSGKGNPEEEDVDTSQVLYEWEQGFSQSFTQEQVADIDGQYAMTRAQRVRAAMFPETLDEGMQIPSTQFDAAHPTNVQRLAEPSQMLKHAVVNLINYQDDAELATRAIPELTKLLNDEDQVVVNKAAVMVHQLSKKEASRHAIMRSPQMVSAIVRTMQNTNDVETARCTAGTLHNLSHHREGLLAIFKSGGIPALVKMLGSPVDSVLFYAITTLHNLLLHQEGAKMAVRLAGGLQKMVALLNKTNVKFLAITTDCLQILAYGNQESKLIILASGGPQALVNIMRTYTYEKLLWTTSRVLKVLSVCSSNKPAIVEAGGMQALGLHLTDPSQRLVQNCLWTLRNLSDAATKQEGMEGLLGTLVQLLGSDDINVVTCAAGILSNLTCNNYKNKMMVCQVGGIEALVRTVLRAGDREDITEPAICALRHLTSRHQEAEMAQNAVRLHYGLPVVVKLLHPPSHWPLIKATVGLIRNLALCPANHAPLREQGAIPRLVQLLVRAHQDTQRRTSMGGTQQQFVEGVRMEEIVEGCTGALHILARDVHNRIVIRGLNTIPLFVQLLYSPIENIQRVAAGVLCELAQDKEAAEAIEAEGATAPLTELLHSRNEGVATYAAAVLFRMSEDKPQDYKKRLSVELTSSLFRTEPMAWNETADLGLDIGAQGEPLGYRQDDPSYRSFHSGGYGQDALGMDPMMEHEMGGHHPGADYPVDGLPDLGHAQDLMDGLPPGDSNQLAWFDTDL
# Assay: Fluorescence polarization IC50 (beta-catenin / 5FAM-TCF4 10-53 competition)
# Type: binding
# Conditions: fluorescence polarization, beta-catenin; read-out: FP EC50
row,IC50 [nM],Compound
1,134,"CCCC[C@@H]1NC(=O)[C@H](CC(=O)O)NC(=O)[C@]2(CC=CCCCC3(CCCC=CCCCOC(=O)N4CC[C@@](C(=O)N[C@@H](Cc5ccccc5Cl)C(=O)N[C@@H](Cc5csc6ccccc56)C(=O)N[C@@H](CC(C)C)C(N)=O)(C4)NC(=O)[C@H](CC(C)C)NC(=O)[C@H](Cc4ccccc4)NC(=O)[C@H](C)NC(=O)[C@H](C)NC(=O)[C@H](CC(=O)O)NC(=O)[C@H](CC(=O)O)NC3=O)NC1=O)CCCN2C(C)=O (stereo partly drawn) [I-1421, Ac-PL3-Asp-nLeu-B5-Asp-Asp-Ala-Ala-Phe-Leu-PyrS2-2C1F-BztA-Leu-NH2]"

# Same assay, conditions: fluorescence polarization; read-out: beta-Catenin FP IC50
row,IC50 [nM],Compound
1,9,"CC(=O)N(CC(=O)O)C[C@@H]1NC(=O)[C@H](CC(=O)O)NC(=O)C2(CCCC=CCCCOC(=O)N3CC[C@@](C(=O)N[C@@H](Cc4ccsc4)C(=O)N[C@@H](Cc4csc5ccccc45)C(=O)N[C@@H](CCC(N)=O)C(N)=O)(C3)NC(=O)[C@H](CC(C)C)NC(=O)[C@H](Cc3ccccc3)NC(=O)[C@H](C)NC(=O)[C@H](C)NC1=O)CCCC=CC[C@]1(CCCN1C(C)=O)C(=O)N[C@@H](CC(=O)O)C(=O)N[C@@H](CC(C)(C)C)C(=O)N2 (stereo partly drawn) [I-1729, Ac-PL3-Asp-Npg-B5-Asp-[Ac]GA-Ala-Ala-Phe-Leu-PyrS2-3Thi-BztA-Gln-NH2]"
2,267,"CC(=O)N1CCC[C@]12CC=CCCCC1(CCCC=CCCCOC(=O)N3CC[C@@](C(=O)N[C@@H](Cc4ccsc4)C(=O)N[C@@H](Cc4csc5ccccc45)C(=O)N[C@@H](Cc4ccccc4)C(N)=O)(C3)NC(=O)[C@H](CC(N)=O)NC(=O)[C@H](Cc3ccccc3)NC(=O)[C@H](C)NC(=O)C(C)(C)NC(=O)[C@H]([C@@H](C)O)NC(=O)[C@H](CC(N)=O)NC1=O)NC(=O)[C@H](CC(C)(C)C)NC(=O)[C@H](CC(=O)O)NC2=O (stereo partly drawn) [I-2412, Ac-PL3-Asp-Npg-B5-Asn-Thr-Aib-Ala-Phe-Asn-PyrS2-3Thi-BztA-Phe-NH2]"
3,1430,"CC(=O)N1CCC[C@]12CC=CCCCC1(CCCC=CCCCOC(=O)N3CC[C@@](C(=O)N[C@@H](Cc4ccccc4)C(=O)N[C@@H](Cc4csc5ccccc45)C(=O)N[C@@H](CCC(N)=O)C(N)=O)(C3)NC(=O)[C@H](CC(C)C)NC(=O)[C@H](Cc3ccccc3)NC(=O)[C@H](C)NC(=O)[C@H](CCCCNC(C)C)NC(=O)[C@H]([C@@H](C)O)NC(=O)[C@H](CC(=O)O)NC1=O)NC(=O)[C@H](Cc1ccccc1)NC(=O)[C@H](CC(N)=O)NC2=O (stereo partly drawn) [I-1580, Ac-PL3-Asn-Phe-B5-Asp-Thr-iPrLys-Ala-Phe-Leu-PyrS2-Phe-BztA-Gln-NH2]"
4,34,"CC(=O)N1CCC[C@]12CC=CCCCC1(CCCC=CCCCCCC[C@@](C)(C(=O)N[C@@H](Cc3ccccc3Cl)C(=O)N[C@@H](Cc3csc4ccccc34)C(=O)N[C@H](CO)[C@@H](C)O)NC(=O)[C@H](CCO)NC(=O)[C@H](Cc3ccccc3)NC(=O)[C@H](C)NC(=O)[C@H](C)NC(=O)[C@H](CC(=O)O)NC(=O)[C@H](CC(=O)O)NC1=O)NC(=O)[C@H](CC(C)(C)C)NC(=O)[C@H](CC(=O)O)NC2=O (stereo partly drawn) [I-1491, Ac-PL3-Asp-Npg-B5-Asp-Asp-Ala-Ala-Phe-Hse-S8-2C1F-BztA-Thro1]"
5,134,"CCCC[C@@H]1NC(=O)[C@H](CC(=O)O)NC(=O)[C@]2(CC=CCCCC3(CCCC=CCCCOC(=O)N4CC[C@@](C(=O)N[C@@H](Cc5ccccc5Cl)C(=O)N[C@@H](Cc5csc6ccccc56)C(=O)N[C@@H](CC(C)C)C(N)=O)(C4)NC(=O)[C@H](CC(C)C)NC(=O)[C@H](Cc4ccccc4)NC(=O)[C@H](C)NC(=O)[C@H](C)NC(=O)[C@H](CC(=O)O)NC(=O)[C@H](CC(=O)O)NC3=O)NC1=O)CCCN2C(C)=O (stereo partly drawn) [I-1421, Ac-PL3-Asp-nLeu-B5-Asp-Asp-Ala-Ala-Phe-Leu-PyrS2-2C1F-BztA-Leu-NH2]"
6,2660,"CC(=O)N1CCC[C@]12CC=CCCCC1(CCCC=CCCCOC(=O)N3CC[C@@](C(=O)N[C@@H](Cc4ccsc4)C(=O)N[C@@H](Cc4csc5ccccc45)C(=O)N[C@@H](CCC(N)=O)C(N)=O)(C3)NC(=O)[C@H](CC(N)=O)NC(=O)[C@H](Cc3ccccc3)NC(=O)[C@H](C)NC(=O)[C@H](C)NC(=O)[C@H](Cc3ccc(O)cc3)NC(=O)[C@H](CC(N)=O)NC1=O)NC(=O)[C@H](CC(C)(C)C)NC(=O)[C@H](CC(=O)O)NC2=O (stereo partly drawn) [I-1569, Ac-PL3-Asp-Npg-B5-Asn-Tyr-Ala-Ala-Phe-Asn-PyrS2-3Thi-BztA-Gln-NH2]"
7,1950,"CC(=O)N[C@]12CCN(C1)C(=O)OCC=CCCCC1(CCCC=CCCCOC(=O)N3CC[C@@](C(=O)N[C@@H](Cc4ccccc4C(F)(F)F)C(=O)N[C@@H](Cc4csc5ccccc45)C(=O)N[C@@H](CCC(N)=O)C(N)=O)(C3)NC(=O)[C@H](CC(C)C)NC(=O)[C@H](Cc3ccccc3)NC(=O)[C@H](C)NC(=O)[C@H](C)NC(=O)[C@H](Cc3cccc(C(=O)O)c3)NC(=O)[C@H](CC(=O)O)NC1=O)NC(=O)[C@H](CC(C)(C)C)NC(=O)[C@H](CC(=O)O)NC(=O)[C@H](CCC(=O)O)NC2=O (stereo partly drawn) [I-2569, Ac-PyrR-Glu-Asp-Npg-B5-Asp-3COOHF-Ala-Ala-Phe-Leu-PyrS2-2F3MeF-BztA-Gln-NH2]"
8,23,"CC(=O)N1CCC[C@]12CC=CCCCC1(CCCC=CCCCOC(=O)N3CC[C@@](C(=O)N[C@@H](Cc4ccccc4Cl)C(=O)N[C@@H](Cc4csc5ccccc45)C(=O)N[C@@H](CO)C(=O)N[C@@H](C)CO)(C3)NC(=O)[C@H](CC(C)C)NC(=O)[C@H](Cc3ccccc3)NC(=O)[C@H](C)NC(=O)[C@H](C)NC(=O)[C@H](Cc3cccc(C(=O)O)c3)NC(=O)[C@H](CC(=O)O)NC1=O)NC(=O)[C@H](CC(C)(C)C)NC(=O)[C@H](CC(=O)O)NC2=O (stereo partly drawn) [I-1907, Ac-PL3-Asp-Npg-B5-Asp-3COOHF-Ala-Ala-Phe-Leu-PyrS2-2C1F-BztA-Ser-Alao1]"
9,6560,"CC(=O)N1CCC[C@]12CC=CCCCC1(CCCC=CCCCOC(=O)N3CC[C@@](C(=O)N[C@@H](Cc4cccc(Cl)c4)C(=O)N[C@@H](Cc4csc5ccccc45)C(=O)N[C@@H](CCC(N)=O)C(N)=O)(C3)NC(=O)[C@H](CC(N)=O)NC(=O)[C@H](Cc3ccccc3)NC(=O)[C@H](C)NC(=O)[C@H](C)NC(=O)[C@H]([C@@H](C)O)NC(=O)[C@H](CC(N)=O)NC1=O)NC(=O)[C@H](CC(C)(C)C)NC(=O)[C@H](CC(=O)O)NC2=O (stereo partly drawn) [I-2000, Ac-PL3-Asp-Npg-B5-Asn-Thr-Ala-Ala-Phe-Asn-PyrS2-3C1F-BztA-Gln-NH2]"
10,74,"CC(=O)N1CCC[C@]12CC=CCCCCC1(CCCCC=CCCCOC(=O)N3CC[C@@](C(=O)N[C@@H](Cc4ccccc4C(F)(F)F)C(=O)N[C@@H](Cc4csc5ccccc45)C(=O)N[C@@H](CCC(N)=O)C(N)=O)(C3)NC(=O)[C@H](CC(C)C)NC(=O)[C@H](Cc3ccccc3)NC(=O)[C@H](C)NC(=O)[C@H](C)NC(=O)[C@H](Cc3cccc(C(=O)O)c3)NC(=O)[C@H](CC(=O)O)NC1=O)NC(=O)[C@H](CC(C)(C)C)NC(=O)[C@H](CC(=O)O)NC2=O (stereo partly drawn) [I-2514, Ac-PL3-Asp-Npg-B6-Asp-3COOHF-Ala-Ala-Phe-Leu-PyrS2-2F3MeF-BztA-Gln-NH2]"
11,104,"CC(=O)N1CCC[C@]12CC=CCCCC1(CCCC=CCCCOC(=O)N3CC[C@@](C(=O)N[C@@H](Cc4ccsc4)C(=O)N[C@@H](Cc4csc5ccccc45)C(=O)N[C@H](C(N)=O)C(C)C)(C3)NC(=O)[C@H](CC(C)C)NC(=O)[C@H](Cc3ccccc3)NC(=O)[C@H](C)NC(=O)[C@H](C)NC(=O)[C@H](CN(CC(=O)O)CC(F)(F)F)NC(=O)[C@H](CC(=O)O)NC1=O)NC(=O)[C@H](CC(C)(C)C)NC(=O)[C@H](CC(=O)O)NC2=O (stereo partly drawn) [I-1751, Ac-PL3-Asp-Npg-B5-Asp-TfeGA-Ala-Ala-Phe-Leu-PyrS2-3Thi-BztA-Val-NH2]"
12,457,"CC(=O)N1CCC[C@]12CC=CCCCC1(CCCC=CCCCOC(=O)N3CC[C@@](C(=O)N[C@@H](Cc4ccccc4)C(=O)N[C@@H](Cc4csc5ccccc45)C(=O)N[C@@H](CCO)C(N)=O)(C3)NC(=O)[C@H](CCO)NC(=O)[C@H](Cc3ccccc3)NC(=O)[C@H](C)NC(=O)[C@H](CCCCNC(C)C)NC(=O)[C@H](CCC(N)=O)NC(=O)[C@H](CC(=O)O)NC1=O)NC(=O)[C@H](CC1CCCCC1)NC(=O)[C@H](CC(N)=O)NC2=O (stereo partly drawn) [I-1922, Ac-PL3-Asn-Cha-B5-Asp-Gln-iPrLys-Ala-Phe-Hse-PyrS2-Phe-BztA-Hse-NH2]"

row,Compound,IC50 [nM]
1,"CC(=O)N1CCC[C@]12CC=CCCCC1(CCCC=CCCCOC(=O)N3CC[C@@](C(=O)N[C@@H](Cc4ccsc4)C(=O)N[C@@H](Cc4csc5ccccc45)C(=O)N[C@@H](CCC(N)=O)C(N)=O)(C3)NC(=O)[C@H](CC(C)C)NC(=O)[C@H](Cc3ccccc3)NC(=O)[C@H](CCCCNC(=O)CC[C@@H](C)[C@H]3CC[C@H]4[C@@H]5CC[C@@H]6C[C@H](O)CC[C@]6(C)[C@H]5CC[C@]34C)NC(=O)[C@H](C)NC(=O)[C@H](CC(=O)O)NC(=O)[C@H](CC(=O)O)NC1=O)NC(=O)[C@H](CC(C)(C)C)NC(=O)[C@H](CC(=O)O)NC2=O (stereo partly drawn) [I-1473, Ac-PL3-Asp-Npg-B5-Asp-Asp-Ala-[lithocholate]-Lys-Phe-Leu-PyrS2-3Thi-BztA-Gln-NH2]",224
2,"CC(=O)N1CCC[C@]12CC=CCCCC1(CCCC=CCCCOC(=O)N3CC[C@@](C(=O)N[C@@H](Cc4ccsc4)C(=O)N[C@@H](Cc4csc5ccccc45)C(=O)N[C@@H](CCC(N)=O)C(N)=O)(C3)NC(=O)[C@H](CC(C)C)NC(=O)[C@H](Cc3ccccc3)NC(=O)[C@H](C)NC(=O)[C@H](C)NC(=O)[C@H](CC(=O)O)NC(=O)[C@H](CC(=O)O)NC1=O)NC(=O)[C@H](CCCCNC(=O)CC[C@@H](C)[C@H]1CC[C@H]3[C@@H]4CC[C@@H]5C[C@H](O)CC[C@]5(C)[C@H]4CC[C@]13C)NC(=O)[C@H](CC(=O)O)NC2=O (stereo partly drawn) [I-1469, Ac-PL3-Asp-[lithocholate]-Lys-B5-Asp-Asp-Ala-Ala-Phe-Leu-PyrS2-3Thi-BztA-Gln-NH2]",95
